Test results taken from patent US12370235B2, “Synthetic, non-natural antimicrobial peptides inspired by Staphylococcus auricularis delta toxin” (University of Saskatchewan, priority 2021, dated 2025).
In brackets after ≈: the same amount, converted by molar mass. Peptide text beside a SMILES is read from it. * marks the point of attachment. For = O=C*

Assays:
[1] = system: Mannheimia haemolytica ATCC 33393; assay: MIC, broth dilution; format: cell-based; conditions: Table 11; highest concentration 25 μg/mL
Method in brief: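 Read-out is the lowest peptide concentration showing no growth after an overnight standing culture at 37 °C. Two-fold serial dilutions of 95%-pure peptide were tested against M. haemolytica ATCC 33393 at OD 6×10^−4 in cation-adjusted MH broth.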

[2] = system: C. albicans MYA-2876; assay: MIC, YPD broth; format: cell-based, Candida albicans; conditions: Table 8
Method in brief: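 Yeast cells were diluted in YPD broth, and 180 μl aliquots were mixed with 20 μl of peptide from 2-fold serial dilutions in flat-bottom 96-well microtitre plates. Wells receiving 20 μl sterile water served as controls. After standing incubation overnight at 37° C, the MIC was taken as the lowest peptide concentration with no visible microbial growth.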

[3] = system: Candida duobushaemulonii AR 392; assay: MIC, YPD broth, CDC and FDA AR Candida isolate panel; format: cell-based; conditions: Table 9 top part: titrations from 1.56 to 100 μg/mL
Method in brief: (§1)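 Overnight standing culture at 37° C in the presence of peptide serially diluted by halves. Starting cell density corresponded to an optical density of […].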

[4] = system: Kodamae ohmeri AR 396; assay: as above; format: cell-based; conditions: Table 9 top part: titrations from 1.56 to 100 μg/mL
Method in brief: as §1

[5] = Circular dichroism spectroscopy; format: physicochemical; conditions: CD, 50% (v/v) TFE
Method in brief: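 Secondary structure of peptides dissolved in water at 0.3–0.5 mg/mL was assessed by CD. Spectra were recorded from 180 to 260 nm at room temperature in a 0.1 cm quartz cuvette; water and 50% (v/v) TFE conditions were compared.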

[6] = system: HeLa cells; format: cell-based; conditions: 24 h, alamarBlue
Method: Peptide cytotoxicity. In vitro cytotoxicity was measured using the 3D EpiDerm skin tissues and HeLa Cells using a fluorescent reporter of cell viability, alamarBlue (ThermoFisher Scientific). 3D EpiDerm skin tissues (MatTek EPI-200-AFAB) were transferred to a 12 well plate containing 600 μL of AFAB-assay medium supplemented with 10% v/v alamarBlue. […] HeLa cells were seeded in a 96-well plate (2×10^4 cells/per well) and incubated overnight at 37° C. and 5% CO2 in a humidified incubator to prepare wells at ˜50% confluency of adherent cells. After the incubation, spent DMEM was removed and cells were washed with PBS. alamarBlue-containing medium was prepared by mixing Phenol Red-free DMEM with alamarBlue solution at a 9:1 ratio and a 180 μl volume was added to each well. Cells were treated with peptides varying from 3.25 to 200 μg/mL and then incubated for 24 h. The fluorescence intensities of treated cultures were normalized to values measured for an untreated control group. After the 24 h incubation period, alamarBlue fluorescence was measured at 590 nm upon excitation at 560 nm using Varioskan Lux plate reader (Thermo Scientific) plate reader.

[7] = target: SspA protease (Staphylococcus aureus, UniProt P0C1U8); assay: SspA protease treatment, LC/MS analysis; format: in vitro ADME; conditions: in vitro, 37° C., ˜5 hours
Chain of SspA protease (P0C1U8 69-336): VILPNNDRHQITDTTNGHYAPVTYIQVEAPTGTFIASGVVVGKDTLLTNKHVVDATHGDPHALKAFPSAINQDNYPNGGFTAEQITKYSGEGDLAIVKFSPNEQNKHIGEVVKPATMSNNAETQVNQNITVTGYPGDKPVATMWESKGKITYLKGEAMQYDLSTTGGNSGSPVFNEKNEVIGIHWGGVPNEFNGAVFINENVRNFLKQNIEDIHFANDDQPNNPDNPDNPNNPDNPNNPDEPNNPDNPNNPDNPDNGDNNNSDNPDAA
Method: SspA protease treatment. SspA protease was resuspended at 2 mg/mL in 100 mM HEPES, pH 7.8. Proteolysis was achieved by incubation of 50 μg PSMs at 37° C. for ˜5 hours with 0.2 mg/mL SspA. The antimicrobial activity of the proteolytic products were assayed by spotting a 5 μL (˜45 μg) from each treated peptide on each test microorganism as described above.
HPLC/MS analysis. High performance liquid chromatography coupled to mass spectrometry (HPLC-MS) was conducted to assess the proteolytic cleavage of synthetic PSMs by the SspA protease, as described above. Both treated samples and untreated controls were incubated at 37° C. for 5 hours, and then frozen until HPLC/MS analysis. An Agilent Infinity II 1260 HPLC outfitted with a Phenomenex Lune C5 column (4.6×150 mm, 5 μm) was used to separate the peptide fragments using a binary solvent system consisting of solvent A (water, 0.05% formic acid) and solvent B (acetonitrile, 0.05% formic acid) operating at 0.7 mL/min. A 5 μl volume (˜4.5 μg) of each sample was injected at 10% solvent B, followed by a two-step gradient elution from 10 to 50% solvent B in 30 minutes, then 50 to 100% B in 10 minutes. The HPLC was coupled to an Advion CMS(L) single quadrupole mass detector through an electrospray ionization source. A line splitter from the HPLC to ESI source was used to deliver sample to the mass detector at 0.3 mL/min. An Advion expression-L CMS detector was used at low temperature and fragmentation settings: capillary temperature: 135° C., capillary voltage 120 V, source voltage offset 20 V, source gas temperature 135° C. and ESI voltage 3500 V. The range of ions detected was between 100 and 2,000 m/z.

CC[C@H](C)[C@H](NC(=O)[C@H](Cc1c[nH]c2ccccc12)NC(=O)[C@H](CCCCN)NC(=O)[C@@H](NC(=O)[C@H](CC(C)C)NC(=O)CNC(=O)CNC(=O)[C@@H](NC(=O)[C@@H](NC(=O)[C@H](CCC(=O)O)NC(=O)[C@@H](NC(=O)[C@@H](NC(=O)[C@H](CC(=O)O)NC(=O)[C@H](CCCCN)NC(=O)[C@@H](NC(=O)[C@H](CCSC)NC=O)[C@@H](C)O)[C@@H](C)CC)C(C)C)[C@@H](C)O)C(C)C)C(C)C)C(=O)N[C@@H](CC(C)C)C(=O)N[C@@H](CC(=O)O)C(=O)N[C@H](C(=O)N[C@H](C(=O)N[C@@H](CCCCN)C(=O)N[C@@H](CCCCN)C(=O)N[C@@H](Cc1ccccc1)C(=O)N[C@@H](C)C(=O)O)C(C)C)[C@@H](C)O [δ-toxin, reference compound] (For-MTKDIVETVGGLVKWILDTVKKFA-OH)
MIC (μg/mL) M. haemolytica [1]: > (> symbol indicates that no inhibition was observed at the highest concentration of peptide tested: 25 μg/mL) | MIC C. albicans MYA-2876 [2]: > (> symbol indicates that no inhibition was observed at the highest concentration of peptide tested: 100 μg/mL) | MIC (μg/mL) Candida duobushaemulonii AR 392 [3]: > (MIC values reported at the top of the table (above the double line) are based on titrations from 1.56 to 100 μg/mL) | MIC (μg/mL) Kodamae ohmeri AR 396 [4]: > (MIC values reported at the top of the table (above the double line) are based on titrations from 1.56 to 100 μg/mL) | α helicity (%) [5]: 88% | IC50, HeLa cell survival [6]: 230 ± 30 µg/mL (≈ 84.6 µM) | susceptibility to SspA cleavage [7]: formylation protected against proteolysis
